From patent publication US12447153B2, “HER2 mutation inhibitors” (Array BioPharma Inc., priority 2021, dated 2025)

Tests used:
[1] = target: ErbB2 WT (Homo sapiens (Human), UniProt P04626); assay: ErbB Enzyme Assay (HTRF KinEASE-TK), Assay 2; assay type: biochemical
[2] = target: EGFR (Homo sapiens (Human), UniProt P00533); assay: ErbB Enzyme Assay (HTRF KinEASE-TK), Assay 3; assay type: biochemical
[3] = target: ErbB2 with Exon 20 YVMA insertion (HER2-YVMA) (Homo sapiens (Human), UniProt P04626, INS775YVMA); assay: Cellular Phosphorylation Assay, Assay 4 (constitutive ErbB2 phosphorylation, NIH 3T3 cells); assay type: cell-based
Chain of ErbB2 with Exon 20 YVMA insertion (HER2-YVMA) (P04626 other isoform, or with tags, fused parts or gaps ins YVMA behind 775): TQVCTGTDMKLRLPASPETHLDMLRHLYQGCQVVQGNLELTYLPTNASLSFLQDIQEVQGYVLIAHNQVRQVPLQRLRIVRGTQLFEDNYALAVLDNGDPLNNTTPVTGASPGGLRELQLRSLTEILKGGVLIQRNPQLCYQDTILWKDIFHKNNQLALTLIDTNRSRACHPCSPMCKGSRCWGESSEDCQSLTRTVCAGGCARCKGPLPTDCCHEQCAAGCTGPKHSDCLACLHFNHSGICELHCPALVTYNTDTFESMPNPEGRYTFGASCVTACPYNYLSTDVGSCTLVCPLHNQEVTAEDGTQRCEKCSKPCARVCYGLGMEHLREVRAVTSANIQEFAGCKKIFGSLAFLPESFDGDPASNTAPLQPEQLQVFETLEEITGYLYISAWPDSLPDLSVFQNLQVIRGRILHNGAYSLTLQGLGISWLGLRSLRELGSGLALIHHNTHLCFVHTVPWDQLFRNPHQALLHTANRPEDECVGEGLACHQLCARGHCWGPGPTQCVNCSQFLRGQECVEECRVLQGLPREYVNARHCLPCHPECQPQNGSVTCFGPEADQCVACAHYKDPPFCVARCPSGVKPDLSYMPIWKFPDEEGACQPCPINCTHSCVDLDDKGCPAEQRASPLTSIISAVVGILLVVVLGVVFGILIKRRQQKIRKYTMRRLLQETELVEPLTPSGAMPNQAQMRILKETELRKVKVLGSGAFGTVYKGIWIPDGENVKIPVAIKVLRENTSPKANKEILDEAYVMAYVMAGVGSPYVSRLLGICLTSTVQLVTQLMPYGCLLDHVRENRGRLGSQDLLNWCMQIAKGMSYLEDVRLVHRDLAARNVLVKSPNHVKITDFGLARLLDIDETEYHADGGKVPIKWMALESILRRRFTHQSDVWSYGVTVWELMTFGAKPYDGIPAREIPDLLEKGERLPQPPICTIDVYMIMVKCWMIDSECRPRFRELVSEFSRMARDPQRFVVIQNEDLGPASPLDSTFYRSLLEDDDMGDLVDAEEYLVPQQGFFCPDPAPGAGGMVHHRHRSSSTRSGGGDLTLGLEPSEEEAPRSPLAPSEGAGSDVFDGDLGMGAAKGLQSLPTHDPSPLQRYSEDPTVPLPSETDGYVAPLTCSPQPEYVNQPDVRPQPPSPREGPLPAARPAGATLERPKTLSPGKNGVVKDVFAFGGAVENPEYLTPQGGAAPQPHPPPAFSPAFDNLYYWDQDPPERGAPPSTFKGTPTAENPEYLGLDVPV

[4] = target: EGFR wild type (EGFR WT) (Homo sapiens (Human), UniProt P00533); assay: Cellular Phosphorylation Assay, Assay 5 (EGF-stimulated EGFR phosphorylation, NIH 3T3 cells); assay type: cell-based
Chain of EGFR wild type (EGFR WT) (P00533 25-1210): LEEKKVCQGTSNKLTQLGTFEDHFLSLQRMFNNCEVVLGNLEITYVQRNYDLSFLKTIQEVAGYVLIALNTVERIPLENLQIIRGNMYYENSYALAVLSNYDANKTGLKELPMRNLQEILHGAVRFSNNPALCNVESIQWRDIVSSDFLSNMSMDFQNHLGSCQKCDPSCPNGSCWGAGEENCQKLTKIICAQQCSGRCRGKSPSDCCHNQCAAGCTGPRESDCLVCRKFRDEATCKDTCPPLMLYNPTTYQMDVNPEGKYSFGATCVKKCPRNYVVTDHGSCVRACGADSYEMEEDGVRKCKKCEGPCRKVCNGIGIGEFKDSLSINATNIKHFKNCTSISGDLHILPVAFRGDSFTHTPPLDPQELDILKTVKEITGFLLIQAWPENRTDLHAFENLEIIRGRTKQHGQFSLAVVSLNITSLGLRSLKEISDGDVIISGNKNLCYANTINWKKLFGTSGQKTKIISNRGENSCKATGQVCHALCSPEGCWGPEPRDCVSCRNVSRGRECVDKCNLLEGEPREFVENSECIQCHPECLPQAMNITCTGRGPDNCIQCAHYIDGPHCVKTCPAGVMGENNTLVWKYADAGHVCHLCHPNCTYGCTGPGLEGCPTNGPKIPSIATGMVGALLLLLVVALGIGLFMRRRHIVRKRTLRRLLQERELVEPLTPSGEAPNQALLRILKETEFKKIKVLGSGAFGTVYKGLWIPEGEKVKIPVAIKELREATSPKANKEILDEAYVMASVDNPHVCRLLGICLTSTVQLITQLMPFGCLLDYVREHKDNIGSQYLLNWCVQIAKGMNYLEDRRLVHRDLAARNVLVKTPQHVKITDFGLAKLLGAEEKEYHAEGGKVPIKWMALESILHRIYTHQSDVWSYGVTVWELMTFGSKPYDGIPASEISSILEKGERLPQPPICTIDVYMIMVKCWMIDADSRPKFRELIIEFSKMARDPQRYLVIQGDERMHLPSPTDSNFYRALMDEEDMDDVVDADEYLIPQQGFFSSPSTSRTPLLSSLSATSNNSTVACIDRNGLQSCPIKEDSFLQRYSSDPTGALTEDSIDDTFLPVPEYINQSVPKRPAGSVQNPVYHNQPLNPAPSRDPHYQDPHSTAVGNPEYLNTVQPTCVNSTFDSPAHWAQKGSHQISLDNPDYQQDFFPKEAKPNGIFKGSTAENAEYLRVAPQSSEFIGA

[5] = target: BCRP (Homo sapiens (Human), UniProt Q9UNQ0); assay: BCRP MDCKII efflux assay (Assay 7); assay type: in vitro ADME; conditions: dog; efflux ratio Papp(B-A)/Papp(A-B), BCRP MDCKII cells; read-out: Assay 7 Pe Ratio
Description: Assay conditions included with and without the BCRP-specific inhibitor, KO143, at a concentration of 0.3 μM to ascertain the contribution of BCRP to the efflux value of the test compound.
Final organic concentration in the assay was 1%.

[6] = target: MDR1 (P-gp) (Homo sapiens (Human), UniProt P08183); assay: in vitro; conditions: pig, LLC-PK1
[7] = EGF-stimulated EGFR WT phosphorylation
[8] = cellular ErbB2 YVMA phosphorylation
[9] = cellular EGFR WT phosphorylation, EGF-stimulated

Chain of ErbB2 WT (P04626 23-1255): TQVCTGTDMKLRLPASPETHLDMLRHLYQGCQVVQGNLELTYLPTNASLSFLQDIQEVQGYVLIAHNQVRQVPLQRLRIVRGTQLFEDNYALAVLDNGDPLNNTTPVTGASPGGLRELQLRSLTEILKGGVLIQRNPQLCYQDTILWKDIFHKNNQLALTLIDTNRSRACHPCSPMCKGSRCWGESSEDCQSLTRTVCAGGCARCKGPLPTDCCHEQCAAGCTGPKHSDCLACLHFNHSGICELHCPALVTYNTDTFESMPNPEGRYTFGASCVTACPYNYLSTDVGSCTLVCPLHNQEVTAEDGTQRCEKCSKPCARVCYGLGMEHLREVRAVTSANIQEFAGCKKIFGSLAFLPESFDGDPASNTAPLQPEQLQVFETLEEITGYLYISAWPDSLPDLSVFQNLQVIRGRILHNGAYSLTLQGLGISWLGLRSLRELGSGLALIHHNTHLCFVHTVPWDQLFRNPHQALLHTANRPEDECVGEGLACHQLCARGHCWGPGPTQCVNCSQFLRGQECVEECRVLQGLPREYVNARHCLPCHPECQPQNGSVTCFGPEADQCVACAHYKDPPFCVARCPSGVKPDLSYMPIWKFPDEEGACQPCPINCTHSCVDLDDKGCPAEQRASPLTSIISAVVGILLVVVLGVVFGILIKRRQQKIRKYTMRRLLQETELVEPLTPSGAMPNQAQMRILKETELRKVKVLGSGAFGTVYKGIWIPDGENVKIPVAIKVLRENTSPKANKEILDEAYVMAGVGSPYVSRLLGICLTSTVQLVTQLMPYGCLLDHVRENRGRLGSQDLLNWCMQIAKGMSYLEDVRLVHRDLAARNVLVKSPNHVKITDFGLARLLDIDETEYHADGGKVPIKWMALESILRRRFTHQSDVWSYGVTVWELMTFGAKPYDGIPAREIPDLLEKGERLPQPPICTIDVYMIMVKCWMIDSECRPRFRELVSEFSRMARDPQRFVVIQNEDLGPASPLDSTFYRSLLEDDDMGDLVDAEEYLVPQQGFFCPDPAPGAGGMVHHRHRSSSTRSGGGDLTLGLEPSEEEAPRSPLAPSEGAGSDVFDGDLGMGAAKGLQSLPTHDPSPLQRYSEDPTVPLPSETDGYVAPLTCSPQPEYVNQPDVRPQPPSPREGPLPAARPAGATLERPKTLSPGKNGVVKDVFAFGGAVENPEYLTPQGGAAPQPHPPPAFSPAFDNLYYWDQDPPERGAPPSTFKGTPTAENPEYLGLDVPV
Chain of EGFR (P00533 25-1210): as the sequence (P00533 25-1210) above

For `C=CC(=O)N1CCN(c2ccc3ncnc(Nc4ccc(Oc5ccn6ncnc6c5)c(C)c4F)c3n2)CC1` [Example 96, 1-(4-(4-((4-([1,2,4]triazolo[1,5-a]pyridin-7-yloxy)-2-fluoro-3-methylphenyl)amino)pyrido[3,2-d]pyrimidin-6-yl)piperazin-1-yl)prop-2-en-1-one], the IC50 ([1]; ErbB2 WT enzyme) was 16.7 nM, the IC50 ([2]; EGFR enzyme) was 835 nM and the IC50 ([3]; ErbB2 YVMA phosphorylation) was 6.8 nM. It also gave an IC50 [4, 7] of 538 nM, an efflux ratio at 2 h, 1 µM [5] of 6.1 and an efflux ratio at 2 h, 1 µM [6] of 1.8.

`C=CC(=O)N1[C@H](C)CN(c2ccc3ncnc(Nc4cc(C)c(Oc5ccc6c(c5)ncn6C)cc4F)c3n2)C[C@@H]1C` [Example 112, 1-((2S,6R)-4-(4-((2-fluoro-5-methyl-4-((1-methyl-1H-benzo[d]imidazol-5-yl)oxy)phenyl)amino)pyrido[3,2-d]pyrimidin-6-yl)-2,6-dimethylpiperazin-1-yl)prop-2-en-1-one] gave an IC50 ([1]; ErbB2 WT enzyme) of 57.5 nM, an IC50 ([2]; EGFR enzyme) of 3330 nM and an IC50 ([3]; ErbB2 YVMA phosphorylation) of 19.8 nM. The IC50 [4, 7] was at least 5000 nM, the efflux ratio at 2 h, 1 µM [5] was 5.2 and the efflux ratio at 2 h, 1 µM [6] was 1.4.

In the case of `C=CC(=O)N1[C@@H]2CC[C@H]1C(c1ccc3ncnc(Nc4ccc(Oc5ccn6ncnc6c5)c(C)c4)c3n1)C2` (single isomer, unassigned) [Example 232], the IC50 ([1]; ErbB2 WT enzyme) is reported as 10.5 nM, the IC50 ([2]; EGFR enzyme) is reported as 203 nM and the IC50 ([3]; ErbB2 YVMA phosphorylation) is reported as 31.9 nM. It also gave an IC50 [4, 7] of at least 5000 nM, an efflux ratio at 2 h, 1 µM [5] of 2.6 and an efflux ratio at 2 h, 1 µM [6] of 0.8.

Compound `C=CC(=O)N1CCCC(c2ccc3ncnc(Nc4cc(C)c(Oc5cnc6c(c5)ncn6C)cc4F)c3n2)CC1` (stereo not drawn) [Example 412] has an IC50 ([1]; ErbB2 WT enzyme assay) of 206 nM, an IC50 ([2]; EGFR enzyme assay) of at least 10000 nM and an IC50 [3, 8] of 29.2 nM. It also gave an IC50 [4, 9] of at least 5000 nM, an efflux ratio at 2 h, 1 µM [5] of 3 and an efflux ratio at 2 h, 1 µM [6] of 1.6.

`C=CC(=O)N1CCC(c2ccc3ncnc(Nc4ccc(Oc5ccn6ncnc6c5)c(C)c4F)c3n2)CC12CC2` (stereo not drawn) [Example 270] gave an IC50 ([1]; ErbB2 WT enzyme assay) of 21 nM, an IC50 ([2]; EGFR enzyme assay) of 942 nM and an IC50 [3, 8] of 20.1 nM. For the same compound, the IC50 [4, 9] was 494 nM, the efflux ratio at 2 h, 1 µM [5] was 1.1 and the efflux ratio at 2 h, 1 µM [6] was 1.6.

In the case of `C=CC(=O)N1C[C@H]2CC[C@@H]1[C@H](c1ccc3ncnc(Nc4ccc(Oc5cnc6c(c5)ncn6C)c(C)c4F)c3n1)C2` [Example 426], the IC50 ([1]; ErbB2 WT enzyme assay) is reported as 183 nM, the IC50 ([2]; EGFR enzyme assay) is reported as at least 10000 nM and the IC50 [3, 8] is reported as 33.2 nM. For the same compound, the IC50 [4, 9] was at least 5000 nM, the efflux ratio at 2 h, 1 µM [5] was 2 and the efflux ratio at 2 h, 1 µM [6] was 0.7.

Compound `C=CC(=O)N1CCN(c2ccc3ncnc(Nc4cc(C)c(Oc5cnc6c(c5)ncn6C)cc4F)c3n2)CC1(C)C` [Example 357] has an IC50 ([1]; ErbB2 WT enzyme assay) of 122 nM, an IC50 ([2]; EGFR enzyme assay) of 5050 nM and an IC50 [3, 8] of 17.1 nM. The IC50 [4, 9] was at least 5000 nM, the efflux ratio at 2 h, 1 µM [5] was 6.2 and the efflux ratio at 2 h, 1 µM [6] was 1.6.

`C=CC(=O)N1CC2CC(C1)N2c1ccc2ncnc(Nc3cc(Cl)c(Oc4ccn5ncnc5c4)cc3F)c2n1` [Example 45, 1-(6-(4-((4-([1,2,4]triazolo[1,5-a]pyridin-7-yloxy)-5-chloro-2-fluorophenyl)amino)pyrido[3,2-d]pyrimidin-6-yl)-3,6-diazabicyclo[3.1.1]heptan-3-yl)prop-2-en-1-one] gave an IC50 ([1]; ErbB2 WT enzyme) of 222 nM, an IC50 ([2]; EGFR enzyme) of 8300 nM and an IC50 ([3]; ErbB2 YVMA phosphorylation) of 17.1 nM. For the same compound, the IC50 [4, 7] was 2760 nM, the efflux ratio at 2 h, 1 µM [5] was 5.6 and the efflux ratio at 2 h, 1 µM [6] was 2.5.

Work on `CC#CC(=O)N1CC2CCC(C1)N2c1ccc2ncnc(Nc3ccc(Oc4ccn5ncnc5c4)c(C)c3F)c2n1` [Example 246, 1-(8-(4-((4-([1,2,4]triazolo[1,5-a]pyridin-7-yloxy)-2-fluoro-3-methylphenyl)amino)pyrido[3,2-d]pyrimidin-6-yl)-3,8-diazabicyclo[3.2.1]octan-3-yl)but-2-yn-1-one] yielded an IC50 ([1]; ErbB2 WT enzyme) of 34.8 nM, an IC50 ([2]; EGFR enzyme) of 1800 nM and an IC50 ([3]; ErbB2 YVMA phosphorylation) of 16.2 nM. The IC50 [4, 7] was 1300 nM, the efflux ratio at 2 h, 1 µM [5] was 1.3 and the efflux ratio at 2 h, 1 µM [6] was 0.5.

`C=CC(=O)N1CC[C@H]2C[C@@H](c3ccc4ncnc(Nc5cc(C)c(Oc6ccc7c(c6)ncn7C)cc5F)c4n3)C[C@H]21` (racemic) [Example 37, 1-(5-(4-((2-fluoro-5-methyl-4-((1-methyl-1H-benzo[d]imidazol-5-yl)oxy)phenyl)amino)pyrido[3,2-d]pyrimidin-6-yl)hexahydrocyclopenta[b]pyrrol-1(2H)-yl)prop-2-en-1-one] gave an IC50 ([1]; ErbB2 WT enzyme) of 119 nM, an IC50 ([2]; EGFR enzyme) of at least 10000 nM and an IC50 ([3]; ErbB2 YVMA phosphorylation) of 20.3 nM. The IC50 [4, 7] was at least 5000 nM, the efflux ratio at 2 h, 1 µM [5] was 1.8 and the efflux ratio at 2 h, 1 µM [6] was 1.5.
